Measurements from PubChem BioAssay (NCI).
Values joined by “and” are separate entries in the source; they are usually repeats but may differ in a detail not shown here. Equal values may be shown once.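 Following 48 hours of exposure in 96-well plates, responses at five concentrations were used to interpolate endpoints linearly. GI50 marks 50% less growth. The concentration for full growth arrest is given as TGI.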

Columns and labels:
Assay in all cases: NCI tumour cell line growth inhibition, 48 h
CCRF-CEM leukemia = test system: CCRF-CEM leukemia
SK-MEL-2 melanoma = test system: SK-MEL-2 melanoma
BT-549 breast = test system: BT-549 breast
MDA-MB-435 = test system: MDA-MB-435
COLO 205 colon = test system: COLO 205 colon
PC-3 prostate = test system: PC-3 prostate
NCI/ADR-RES ovarian = test system: NCI/ADR-RES ovarian
M14 melanoma = test system: M14 melanoma
RXF 393 renal = test system: RXF 393 renal
K-562 leukemia = test system: K-562 leukemia
UACC-62 melanoma = test system: UACC-62 melanoma
SNB-75 CNS = test system: SNB-75 CNS
MCF7 breast = test system: MCF7 breast
SK-MEL-28 melanoma = test system: SK-MEL-28 melanoma
UACC-257 melanoma = test system: UACC-257 melanoma
MDA-MB-231 breast = test system: MDA-MB-231 breast
HT29 colon = test system: HT29 colon
OVCAR-5 ovarian = test system: OVCAR-5 ovarian
HOP-18 NSCLC = test system: HOP-18 NSCLC
MALME-3M melanoma = test system: MALME-3M melanoma
SNB-78 CNS = test system: SNB-78 CNS
SNB-19 CNS = test system: SNB-19 CNS
DLD-1 colon = test system: DLD-1 colon
TK-10 renal = test system: TK-10 renal
MDA-N = test system: MDA-N
SF-268 CNS = test system: SF-268 CNS
KM20L2 colon = test system: KM20L2 colon
SW-620 colon = test system: SW-620 colon
MOLT-4 leukemia = test system: MOLT-4 leukemia
RPMI-8226 leukemia = test system: RPMI-8226 leukemia
UO-31 renal = test system: UO-31 renal
NCI-H460 lung = test system: NCI-H460 lung
SN12C renal = test system: SN12C renal
SF-295 CNS = test system: SF-295 CNS

COC1C(O)C(C)OC(OC2C(Oc3cccc4c(O)c5c(=O)oc6ccc(C)c7c(=O)oc(c34)c5c67)OC(C)C(O)C2O)C1O (configuration not stated)
TGI (CCRF-CEM leukemia): 14.4 µM and 5.06 µM | GI50 (SK-MEL-2 melanoma): 0.695 µM | TGI (SK-MEL-2 melanoma): 1.93 µM and 2.56 µM | TGI (BT-549 breast): 7.83 µM | TGI (MDA-MB-435): 8.29 µM | GI50 (COLO 205 colon): 1.74 µM | TGI (COLO 205 colon): 16 µM and 6.3 µM | TGI (PC-3 prostate): 17.8 µM | GI50 (NCI/ADR-RES ovarian): 26.1 µM | TGI (NCI/ADR-RES ovarian): 117 µM | TGI (M14 melanoma): 14.8 µM | GI50 (RXF 393 renal): 0.536 µM | TGI (RXF 393 renal): 2.6 µM and 3.37 µM | TGI (K-562 leukemia): 19.3 µM and 8.81 µM | GI50 (UACC-62 melanoma): 1.35 µM | TGI (UACC-62 melanoma): 3.26 µM and 3.56 µM | GI50 (SNB-75 CNS): 3.15 µM | TGI (SNB-75 CNS): 12.6 µM and 7.14 µM | GI50 (MCF7 breast): 1.61 µM | TGI (MCF7 breast): 21.6 µM and 6.89 µM | GI50 (SK-MEL-28 melanoma): 1.87 µM | TGI (SK-MEL-28 melanoma): 6.85 µM and 4.93 µM | TGI (UACC-257 melanoma): 5.85 µM and 5.46 µM | TGI (MDA-MB-231 breast): 8.67 µM | GI50 (HT29 colon): 1.94 µM | TGI (HT29 colon): 13.8 µM | GI50 (OVCAR-5 ovarian): 6.91 µM | TGI (OVCAR-5 ovarian): 30.8 µM and 15.6 µM | TGI (HOP-18 NSCLC): 8.35 µM | GI50 (MALME-3M melanoma): 1.83 µM | TGI (MALME-3M melanoma): 5.22 µM and 5.75 µM | TGI (SNB-78 CNS): 19.3 µM | GI50 (SNB-19 CNS): 0.632 µM and 1.21 µM | TGI (SNB-19 CNS): 26.6 µM and 14.4 µM | TGI (DLD-1 colon): 14.9 µM | TGI (TK-10 renal): 21 µM | TGI (MDA-N): 6.88 µM | GI50 (SF-268 CNS): 1.01 µM | TGI (SF-268 CNS): 11.1 µM and 12.6 µM | TGI (KM20L2 colon): 18.5 µM | GI50 (SW-620 colon): 1.28 µM | TGI (SW-620 colon): 63.8 µM and 20.5 µM | GI50 (MOLT-4 leukemia): 0.647 µM | TGI (MOLT-4 leukemia): 14.9 µM and 2.23 µM | GI50 (RPMI-8226 leukemia): 1.25 µM | TGI (RPMI-8226 leukemia): 15.9 µM and 6.88 µM | TGI (UO-31 renal): 36.5 µM and 18.9 µM | TGI (NCI-H460 lung): 9.07 µM and 13.1 µM | GI50 (SN12C renal): 1.41 µM | TGI (SN12C renal): 7.74 µM and 20.9 µM | GI50 (SF-295 CNS): 1.12 µM | TGI (SF-295 CNS): 11.9 µM and 4.21 µM
